From patent US7455861B2, “Angelicae sinensis extracts useful for treatment of cancers” (priority 2004, dated 2008)
Several values for one entry are separate records, joined by “and”; a condition that tells them apart may be missing. Equal entries are not always repeated. Where two headings read alike, the source gives them in different places.

How the values were obtained:
[1] = test system: DBTRG-05MG cells; assay: Western blot analysis of apoptosis molecules; type: cell-based, human; conditions: BP 400 μM
Description: DBTRG-05MG cells (human GBM cells) were treated with AS-C (70 μg/ml) for 0, 6, 12, 24 and 48 hours. In another test, DBTRG-05MG cells were treated with BP (400 μM) for 0, 1.5, 3, 6, 12, 24 and 48 hours. The cell pellets were re-suspended in lysis buffer ([…] Tris-HCl, pH 7.5, 1 mM EGTA, 0.5% CHAPS, 10% (v/v) glycerol, 5 mM β-2-mercaptoethanol and 0.1 mM phenylmethylsulfonyl fluoride) and incubated on ice for 30 min, and then centrifuged at 13000×rpm at 4° C. for 20 minutes. The protein concentration of whole cell lysates was measured with BCA protein assay kit (Pierce, Rockford, Ill.) following the manufacturer's instructions. The cell lysates (20 μg/lane) were electrophoresed on 10-12% SDS-PAGE (Bio-Rad, Hercules, Calif.). Proteins were transferred to polyvinyldenefluoride (PVDF) membranes (Amersham Lifesciences, Piscataway, N.J.). The membranes were masked for 1 hour at room temperature with 5% skim milk as the blocking agent, and incubated with the respective antibodies of Fas (FL-335), Fas-L (C-178), caspase 3 (H-277), caspase 8 (H-134), caspase 9 (H-170), Bax (B-9), p16 (F-12), p21 (F-5), p53 (DO-1; 1/100 dilution) (Santa Cruz Biotechnology Inc., CA, U.S.A.), phospho-p53 (Ser15; 1/2000 dilution) and phospho-Rb (Ser795; 1/2000 dilution) (Cell Signaling Technology, MA, USA) for 2 hours at room temperature. Antibody recognition was detected, by incubating the membranes with the respective anti-mouse, anti-rabbit, anti-goat IgG secondary antibodies (1/1000 dilution; Santa Cruz Biotechnology Inc., CA, U.S.A.) conjugated to horseradish peroxidase, for 1 hour at room temperature, and visualized with the ECL Plus chemiluminescence system (Amersham, Arlington Heights, Ill.). For system control, SDS-PAGE gels, for every test sample, were prepared in duplicate, containing the same amount of protein; and the control gel was stained with coomassie blue. The other gel was used for Western Blot analysis. The intensity of the bands was analyzed by densitometry with a GS-800 Calibrated Imaging Densitometer (Quantity One 4.0.3 software; Bio-Rad). […] In addition, the activation of the death receptor-induced apoptosis-related caspases-8 was monitored.

[2] = test system: HCT15; assay: Cytotoxicity (IC50) on HCT15; type: cell-based; conditions: Homo sapiens, HCT-15
Description: (§1) The effects on cell viability after the treatments with different concentrations of the Angelicae sinensis extracts or the active components purified therefrom were evaluated by modified MTT assay in triplicate. Briefly, the cells (5×10^3) were incubated into 96-well plates containing 100 μl of a growth medium. The cells were permitted to adhere for 24 hours, then treated with 100 μl of the herbal extracts or the active components dissolved in the medium. The control contained DMSO of <0.02% (v/v). After 24, 48 and 72 h incubation, the drug-containing medium was replaced by 50 μl of fresh medium, and cells in each well were incubated in 50 μl of 400 μg/ml MTT for 6-8 h. The medium and MTT were removed later and 100 μl of DMSO was added to each well and to the control, to dissolve the soluble components. Absorbance at 550 nm of the solutions was measured with MRX Microtiter Plate Luminometer (DYNEX, USA). The absorbance of untreated cells was considered as 100%. To evaluate the effects of the extracts or the active components on cell growth rate of GBM cells, 5×10^3 exponentially growing cells were treated with different concentrations for 24, 48, or 72 h. The cytotoxicity of each test substance was determined as an IC50 value, which represents the drug concentration required to cause 50% inhibition. All experiments in this study were performed in triplicate.

[3] = test system: AT12; assay: Cytotoxicity (IC50) on AT12; type: cell-based; conditions: Homo sapiens, read-out: Cytotoxicity (IC50) AT12
Description: as §1

[4] = test system: HUVEC; assay: Tube formation of HUVEC; type: cell-based, human
[5] = test system: ETS-1; assay: RT-PCR of ETS-1 in HUVEC; type: cell-based, human

CCCC=C1OC(=O)c2ccccc21 [BP, n-Butylidenephthalide]
Caspase-3 [1]: increase
cdk2, cdk4, cdk6 cyclins D1 and cycline E [1]: decrease
expression of the Fas Ligand [1]: suppressing
procaspase 8 [1]: declined
procaspase-3 [1]: declined
procaspase-9 [1]: declined
expression of Fas, increase ([1]; 1.5 h): 5.2 times
p53 phosphorylation increase ([1]; 1.5 h): 5.2 times
AIF expression increase ([1]; 48 h): 2.4 times
Bax expression increase ([1]; 48 h): 16 times
Rb phosphorylation decrease ([1]; 48 h): 0.2 times
activated caspase-9 ([1]; 48 h): 25.8 times
activation of caspase 8 ([1]; 48 h): 137.9
expression of Fas, increase ([1]; 48 h): 27.9 times
p16 expression increase ([1]; 48 h): 3.1 times
p21 expression increase ([1]; 48 h): 2.3 times
p53 expression increase ([1]; 48 h): 1.4 times
p53 phosphorylation increase ([1]; 48 h): 9.2 times
IC50 ([2]; Table 2): 25 to 30 µg/mL
IC50 ([2]; Table 2, value in parentheses): 133 to 160 µM
IC50 [3]: 10 µg/mL to 15 µg/mL and 53.2 µM to 79.8 µM
Inhibition Tube Formation [4]: 531.3 µg/mL
Inhibition Tube Formation ([4]; value in parentheses): (2826 μM)
Inhibition RT-PCR ETS-1 [5]: 53.13 µg/mL
Inhibition RT-PCR ETS-1 ([5]; value in parentheses): (282.6 μM)
